Reference: patent publication US8575156B2, “Cyclic inhibitors of 11β-hydroxysteroid dehydrogenase 1” (Vitae Pharmaceuticals, Inc., priority 2007, dated 2013)
Read-outs that look alike come from different tables or passages of the source.

Target: 11β-HSD1 (Homo sapiens, UniProt P28845)
Assay: biochemical
Conditions: for IC50: IC50 Range, Biological Test Example 1, microsomes from CHO cells overexpressing human 11β-HSD1; for inhibition at 0.1111 µM: read-out: Average % inhibition at 111.1 nM, Biological Test Example 1, 111.1 nM compound
[1] = read-out: Average % inhibition at 100 nM, Biological Test Example 1, 100 nM compound
[2] = read-out: Average % inhibition at 100 nM, Biological Test Example 1, 100 nM

Sequence of 11β-HSD1 (P28845 whole entry): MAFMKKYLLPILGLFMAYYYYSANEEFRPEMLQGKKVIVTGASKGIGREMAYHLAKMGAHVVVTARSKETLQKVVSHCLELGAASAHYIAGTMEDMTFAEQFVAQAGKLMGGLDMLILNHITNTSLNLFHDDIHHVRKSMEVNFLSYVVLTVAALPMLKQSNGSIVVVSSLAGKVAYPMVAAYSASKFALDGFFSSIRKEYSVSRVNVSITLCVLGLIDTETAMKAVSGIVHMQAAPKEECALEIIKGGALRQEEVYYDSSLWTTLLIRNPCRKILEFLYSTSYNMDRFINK

IC50	inhibition at 0.1111 µM	inhibition at 0.1 µM [1]	inhibition at 0.1 µM [2]	Compound	inhibition at 0.1 µM (read-out: Average % inhibition at 100 nM)
100 to 1000 nM	74.4%	–	–	Cc1ccc(C2(C)CCN([C@@H](C)c3ccccc3)C(=O)O2)cc1 (single isomer, unassigned) [EXAMPLE 88 Isomer 1]	–
< 100 nM	91%	–	–	C=CC[C@]1(c2ccc(F)cc2)CCN([C@@H](C)c2ccccc2)C(=O)O1 (single isomer, unassigned) [EXAMPLE 95 Isomer 1]	–
100 to 1000 nM	52.8%	–	–	C[C@@H](c1ccccc1)N1CC[C@@](CCO)(c2ccc(F)cc2)OC1=O (single isomer, unassigned) [EXAMPLE 97 Isomer 1]	–
< 100 nM	88.2%	–	–	C[C@@H](c1ccccc1)N1CC[C@](CCO)(c2ccc(F)cc2)OC1=O (single isomer, unassigned) [EXAMPLE 97 Isomer 2]	–
< 100 nM	–	90.5%	–	C=CC[C@@]1(c2ccc(F)cc2)CCN([C@@H](C)c2ccc(Br)cc2)C(=O)O1 (single isomer, unassigned) [EXAMPLE 110 Isomer 1]	–
< 100 nM	95%	96.6%	–	C=CC[C@]1(c2ccc(F)cc2)CCN([C@@H](C)c2ccc(Br)cc2)C(=O)O1 (single isomer, unassigned) [EXAMPLE 110 Isomer 2]	–
< 100 nM	83.2%	–	–	C=CC1(c2ccc(F)cc2)CCN([C@@H](C)c2ccccc2)C(=O)O1 (single isomer, unassigned) [EXAMPLE 113 Isomer 1]	–
< 100 nM	54.4%	–	–	CC[C@@H](c1ccc(Br)cc1)N1CCC(CCO)(c2ccc(F)cc2)OC1=O (single isomer, unassigned) [EXAMPLE 143 Isomer 1]	–
< 100 nM	90.6%	–	–	C[C@@H](c1ccc(Br)cc1)N1CC[C@](CC(O)CO)(c2ccc(F)cc2)OC1=O (single isomer, unassigned) [EXAMPLE 144 Isomer 1]	–
< 100 nM	66.8%	–	–	CC1CC(CCO)(c2ccc(F)cc2)OC(=O)N1[C@@H](C)c1ccc(Br)cc1 (single isomer, unassigned) [EXAMPLE 163 Isomer 1]	–
< 100 nM	–	97.2%	–	C[C@@H](c1ccc(-c2ccc(F)cc2)cc1)N1CC[C@](CC(O)CO)(c2ccccc2)OC1=O (single isomer, unassigned) [EXAMPLE 168 Isomer 1]	–
< 100 nM	–	96.7%	–	C[C@@H](c1ccc(-c2ccc(F)cc2F)cc1)N1CC[C@](CC(O)CO)(c2ccccc2)OC1=O (single isomer, unassigned) [EXAMPLE 173 Isomer 1]	–
< 100 nM	–	95.2%	–	C=CCC1(c2ccc(F)cc2)CCN([C@@H](C)c2ccc(C)cc2)C(=O)O1 (single isomer, unassigned) [EXAMPLE 189 Isomer 1]	–
< 100 nM	–	–	–	C=CCC1(c2ccc(F)cc2)CCN([C@@H](C)c2ccc(OC)cc2)C(=O)O1 (single isomer, unassigned) [EXAMPLE 193 Isomer 1]	–
< 100 nM	–	101%	–	C=CCC1(c2ccc(F)cc2)CCN([C@@H](C)c2ccc(Cl)cc2)C(=O)O1 (single isomer, unassigned) [EXAMPLE 196 Isomer 1]	–
< 100 nM	–	88.6%	–	CC(O)C[C@]1(c2ccc(F)cc2)CCN([C@@H](C)c2ccc(Cl)cc2)C(=O)O1 (single isomer, unassigned) [EXAMPLE 203 Isomer 1]	–
< 100 nM	–	90.3%	–	COc1ccc([C@H](C)N2CC[C@](CC(O)CO)(c3ccc(F)cc3)OC2=O)cc1 (single isomer, unassigned) [EXAMPLE 206 Isomer 1]	–
< 100 nM	–	97.4%	–	C[C@@H](c1ccc(-c2ccc(F)cc2)cc1)N1CC[C@](CCO)(c2cccs2)OC1=O (single isomer, unassigned) [EXAMPLE 218 Isomer 1]	–
< 100 nM	–	60.3%	–	C[C@@H](c1ccc(-c2ccc(F)cc2)cc1)N1CC[C@@](CCO)(c2cccs2)OC1=O (single isomer, unassigned) [EXAMPLE 218 Isomer 2]	–
< 100 nM	–	100%	–	CC(O)C[C@]1(c2ccccc2)CCN([C@@H](C)c2ccc(-c3ccc(F)cc3)cc2)C(=O)O1 (single isomer, unassigned) [EXAMPLE 224 Isomer 1]	–
< 100 nM	–	–	–	C[C@@H](c1ccc(Br)cc1)N1CCC(CCCO)(c2ccc(F)cc2)OC1=O (single isomer, unassigned) [EXAMPLE 227 Isomer 1]	–
< 100 nM	–	–	98.4%	CC(O)C[C@]1(c2ccc(F)cc2)CCN([C@@H](C)c2ccc(Br)cc2)C(=O)O1 (single isomer, unassigned) [EXAMPLE 371 Isomer 1]	–
< 100 nM	–	–	94.7%	CC(O)CC[C@]1(c2ccc(F)cc2)CCN([C@@H](C)c2ccc(Cl)cc2)C(=O)O1 (single isomer, unassigned) [EXAMPLE 383 Isomer 1]	–
< 100 nM	–	–	92.8%	CC(O)C[C@]1(c2ccc(F)cc2)CCN([C@@H](C)c2ccc(C(F)(F)F)cc2)C(=O)O1 (single isomer, unassigned) [EXAMPLE 388 Isomer 1]	–

Second part, the compound before the results:

Compound	IC50	inhibition at 0.1111 µM	inhibition at 0.1 µM [1]	inhibition at 0.1 µM [2]	inhibition at 0.1 µM (read-out: Average % inhibition at 100 nM)
C[C@@H](c1cccc(OCC(=O)N2CCNCC2)c1)N1CCC(C)(c2ccccc2)OC1=O (mixture of isomers) [EXAMPLE 94, (R/S)-6-methyl-3-((S)-1-(3-(2-oxo-2-(piperazin-1-yl)ethoxy)phenyl)ethyl)-6-phenyl-1,3-oxazinan-2-one]	100 to 1000 nM	16.2%	–	–	–
C[C@@H](c1cccc(OCC(C)(C)O)c1)N1CCC(C)(c2ccccc2)OC1=O (mixture of isomers) [EXAMPLE 93]	100 to 1000 nM	45.3%	–	–	–
C[C@@H](c1ccc(-c2ccc(F)cc2F)cc1)N1CC[C@](CC(O)CO)(c2ccc(F)cc2)OC1=O (single isomer, unassigned) [EXAMPLE 52 Isomer 1]	< 100 nM	–	92.8%	–	–
C[C@@H](c1ccccc1)N1CCC(C)(c2ccccc2)OC1=O (single isomer, unassigned) [EXAMPLE 82 Isomer 1]	< 100 nM	87.6%	–	–	–
C[C@H](c1ccccc1)N1CCC(C)(c2ccccc2)OC1=O (single isomer, unassigned) [EXAMPLE 83 Isomer 1]	100 to 1000 nM	50.3%	–	–	–
COc1cccc([C@H](C)N2CCC(C)(c3ccccc3)OC2=O)c1 (single isomer, unassigned) [EXAMPLE 84 Isomer 1]	< 100 nM	74.8%	–	–	–
COc1ccc([C@H](C)N2CCC(C)(c3ccccc3)OC2=O)cc1 (single isomer, unassigned) [EXAMPLE 85 Isomer 1]	< 100 nM	93.1%	–	–	–
Cc1ccccc1C1(C)CCN([C@@H](C)c2ccccc2)C(=O)O1 (single isomer, unassigned) [EXAMPLE 86 Isomer 1]	100 to 1000 nM	43.3%	–	–	–
Cc1cccc(C2(C)CCN([C@@H](C)c3ccccc3)C(=O)O2)c1 (single isomer, unassigned) [EXAMPLE 87 Isomer 1]	100 to 1000 nM	13.3%	–	–	–
C=CC[C@@]1(c2ccc(F)cc2)CCN([C@@H](C)c2ccc(-c3ccc(F)cc3F)cc2)C(=O)O1 (single isomer, unassigned) [EXAMPLE 111 Isomer 1]	< 100 nM	90.9%	–	–	–
C=CC[C@]1(c2ccc(F)cc2)CCN([C@@H](C)c2ccc(-c3ccc(F)cc3F)cc2)C(=O)O1 (single isomer, unassigned) [EXAMPLE 111 Isomer 2]	< 100 nM	58.9%	–	–	–
C=CCC1(c2ccc(F)cc2)CCN([C@@H](CC)c2ccc(Br)cc2)C(=O)O1 (single isomer, unassigned) [EXAMPLE 130 Isomer 1]	< 100 nM	–	92.2%	–	–
CC(O)C[C@]1(c2ccc(F)cc2)CCN([C@@H](C)c2ccc(-c3ccc(F)cc3F)cc2)C(=O)O1 (single isomer, unassigned) [EXAMPLE 137 Isomer 1]	< 100 nM	–	–	–	–
C=CCC1(c2cccs2)CCN([C@@H](C)c2ccc(Br)cc2)C(=O)O1 (single isomer, unassigned) [EXAMPLE 157 Isomer 1]	< 100 nM	–	97.4%	–	–
C=CCC1(c2cccs2)CCN([C@@H](C)c2ccc(-c3ccc(F)cc3)cc2)C(=O)O1 (single isomer, unassigned) [EXAMPLE 160 Isomer 1]	< 100 nM	93.5%	–	–	–
CC(O)C[C@@]1(c2cccs2)CCN([C@@H](C)c2ccc(-c3ccc(F)cc3)cc2)C(=O)O1 (single isomer, unassigned) [EXAMPLE 167 Isomer 1]	< 100 nM	79%	73.7%	–	–
C[C@@H](C1CCCCC1)N1CC[C@](CC(O)CO)(c2ccc(F)cc2)OC1=O (single isomer, unassigned) [EXAMPLE 197 Isomer 1]	< 100 nM	–	90.4%	–	–
CC(C)C1(CCCO)CCN([C@@H](C)c2ccc(Br)cc2)C(=O)O1 (single isomer, unassigned) [EXAMPLE 200 Isomer 1]	< 100 nM	–	–	–	–
CC(C)C1(CCCO)CCN([C@@H](C)c2ccc(-c3ccc(F)cc3F)cc2)C(=O)O1 (single isomer, unassigned) [EXAMPLE 212 Isomer 1]	< 100 nM	–	96.8%	–	–
CC[C@@H](c1ccc(Br)cc1)N1CC[C@](CC(O)CO)(c2ccccc2)OC1=O (single isomer, unassigned) [EXAMPLE 239 Isomer 1]	< 100 nM	–	91.5%	–	–
CC[C@@H](c1ccc(Br)cc1)N1CC[C@](CC(O)CO)(c2ccc(F)cc2)OC1=O (single isomer, unassigned) [EXAMPLE 255 Isomer 1]	< 100 nM	–	92.5%	–	–
C=CCCC1(c2ccc(F)cc2)CCN([C@@H](C)c2ccc(OC(F)F)cc2)C(=O)O1 (single isomer, unassigned) [EXAMPLE 323 Isomer 1]	< 100 nM	–	–	–	85.9%
